Assays:
[1] = tested on: All weeds; assay: Postemergence field study on natural weed populations, all weeds; assay type: in vivo; details: 28-31 DAA
[2] = tested on: Grasses; assay: Postemergence field study on natural weed populations, grasses; assay type: in vivo; details: 28-31 DAA
[3] = tested on: SSBL (AMAPA, CHEAL, AMBEL); assay: Postemergence field study on natural weed populations, small seeded broadleaf; assay type: in vivo; details: 28-31 DAA
Protocol: In a postemergence field study on a natural weed populations. Herbicides were applied to 4-5″ weeds and efficacy was evaluated at 14 and 28-35 days after application. Rates were in g ai/ha. Data shown was small seeded broadleaf (SSBL; AMPA=Amaranthus palmeri; CHEAL=Chenopodium Album L.; AMBEL=Ambrosia Artemisiifolia L.) control 28-31 DAA. 100% was completely dead and 0% was no plant response.

[4] = tested on: AMAPA; assay: Post-emergence study L-GLU+MST, AMAPA control; assay type: in vivo, Amaranthus palmeri; details: 7 days after treatment
Source text: (§1) In a post-emergence study of AMPA, CHEAL, and ABUTH (Velvet Leaf (Abutilon theophrast)) applications were done to 2 to 4-inch weeds with a spray volume of 15 gallons/acre. Treatments applied are described below, and further included an adjuvant.
The results of AMAPA control with L-GLU+MST mixtures at 7 days after treatment are summarized in the below matrix, where bolded values represent synergy as calculated by Colby.

[5] = tested on: ABUTH; assay: Post-emergence study L-GLU+MST, ABUTH control; assay type: in vivo, Velvet Leaf (Abutilon theophrast); details: 7 days after treatment
Source text: as §1
The results of ABUTH control with L-GLU+MST mixtures at 7 days after treatment are summarized in the below matrix, where bolded values represent synergy as calculated by Colby.

[6] = tested on: CHEAL; assay: Post-emergence study L-GLU+MST, CHEAL control; assay type: in vivo, Chenopodium Album L.; details: 7 days after treatment
Source text: as §1
The results of CHEAL control with L-GLU+MST mixtures at 7 days after treatment are summarized in the below matrix, where bolded values represent synergy as calculated by Colby.

[7] = tested on: AMAPA; assay: Post-emergence study L-GLU+BIR, AMAPA control; assay type: in vivo, Amaranthus palmeri; details: 9 days after treatment
Source text: (§2) In a post-emergence study of AMPA, CHEAL, and Setaria faberi (SETFA) applications were done to 2 to 4-inch weeds with a spray volume of 15 gallons/acre. Treatments applied are described below, and further included an adjuvant.
The results of AMAPA control with L-GLU+BIR (bicyclopyrone) mixtures at 9 days after treatment are summarized in the below matrix, where bolded values represent synergy as calculated by Colby.

[8] = tested on: CHEAL; assay: Post-emergence study L-GLU+BIR, CHEAL control; assay type: in vivo, Chenopodium Album L.; details: 9 days after treatment
Source text: as §2
The results of CHEAL control with L-GLU+BIR (bicyclopyrone) mixtures at 9 days after treatment are summarized in the below matrix, where bolded values represent synergy as calculated by Colby.

[9] = tested on: SETFA; assay: Post-emergence study L-GLU+BIR, SETFA control; assay type: in vivo, Setaria faberi
Source text: as §2
The results of SETFA control with L-GLU+BIR (bicyclopyrone) mixtures at 7 and 14 days after treatment, respectively, are summarized in the below matrix, where bolded values represent synergy as calculated by Colby.

CP(=O)(O)CC[C@H](N)C(=O)O [L-glufosinate]
control, All weeds ([1]; L-glufosinate 328 g/ha): 70%
control, Grasses ([2]; L-glufosinate 328 g/ha): 83%
control, SSBL (AMAPA, CHEAL, AMBEL) ([3]; L-glufosinate 328 g/ha): 55%
% Control AMAPA ([4]; L-GLU 5 g ai/ha alone): 27%
% Control AMAPA ([4]; L-GLU 10 g ai/ha alone): 33%
% Control AMAPA ([4]; L-GLU 30 g ai/ha alone): 83%
% Control AMAPA ([4]; L-GLU 60 g ai/ha alone): 97%
% Control AMAPA ([4]; L-GLU 120 g ai/ha alone): 100%
% Control ABUTH ([5]; L-GLU 5 g ai/ha alone): 2%
% Control ABUTH ([5]; L-GLU 10 g ai/ha alone): 8%
% Control ABUTH ([5]; L-GLU 30 g ai/ha alone): 38%
% Control ABUTH ([5]; L-GLU 60 g ai/ha alone): 67%
% Control ABUTH ([5]; L-GLU 120 g ai/ha alone): 87%
% Control CHEAL ([6]; L-GLU 5 g ai/ha alone): 3%
% Control CHEAL ([6]; L-GLU 10 g ai/ha alone): 8%
% Control CHEAL ([6]; L-GLU 30 g ai/ha alone): 72%
% Control CHEAL ([6]; L-GLU 60 g ai/ha alone): 90%
% Control CHEAL ([6]; L-GLU 120 g ai/ha alone): 90%
% Control AMAPA ([7]; L-GLU 5 g ai/ha alone): 17%
% Control AMAPA ([7]; L-GLU 10 g ai/ha alone): 23%
% Control AMAPA ([7]; L-GLU 30 g ai/ha alone): 57%
% Control AMAPA ([7]; L-GLU 60 g ai/ha alone): 87%
% Control AMAPA ([7]; L-GLU 120 g ai/ha alone): 93%
% Control CHEAL ([8]; L-GLU 5 g ai/ha alone): 0%
% Control CHEAL ([8]; L-GLU 10 g ai/ha alone): 13%
% Control CHEAL ([8]; L-GLU 30 g ai/ha alone): 38%
% Control CHEAL ([8]; L-GLU 60 g ai/ha alone): 88%
% Control CHEAL ([8]; L-GLU 120 g ai/ha alone): 100%
% Control SETFA ([9]; L-GLU 5 g ai/ha alone, 14 Days after Treatment): 10%
% Control SETFA ([9]; L-GLU 5 g ai/ha alone, 7 days after treatment): 13%
% Control SETFA ([9]; L-GLU 10 g ai/ha alone, 14 Days after Treatment): 35%
% Control SETFA ([9]; L-GLU 10 g ai/ha alone, 7 days after treatment): 48%
% Control SETFA ([9]; L-GLU 30 g ai/ha alone, 14 Days after Treatment): 65%
% Control SETFA ([9]; L-GLU 30 g ai/ha alone, 7 days after treatment): 85%
% Control SETFA ([9]; L-GLU 60 g ai/ha alone, 14 Days after Treatment): 89%
% Control SETFA ([9]; L-GLU 60 g ai/ha alone, 7 days after treatment): 95%
% Control SETFA ([9]; L-GLU 120 g ai/ha alone, 14 Days after Treatment): 100%
% Control SETFA ([9]; L-GLU 120 g ai/ha alone, 7 days after treatment): 100%

CS(=O)(=O)c1ccc(C(=O)C2C(=O)CCCC2=O)c([N+](=O)[O-])c1 [Mesotrione]
control, All weeds ([1]; Mesotrione 105 g/ha): 44%
control, Grasses ([2]; Mesotrione 105 g/ha): 35%
control, SSBL (AMAPA, CHEAL, AMBEL) ([3]; Mesotrione 105 g/ha): 26%
% Control AMAPA ([4]; MST 1.5 g ai/ha alone): 20%
% Control AMAPA ([4]; MST 3 g ai/ha alone): 30%
% Control AMAPA ([4]; MST 6 g ai/ha alone): 37%
% Control AMAPA ([4]; MST 12 g ai/ha alone): 72%
% Control AMAPA ([4]; MST 24 g ai/ha alone): 85%
% Control AMAPA ([4]; MST 60 g ai/ha alone): 85%
% Control ABUTH ([5]; MST 1.5 g ai/ha alone): 85%
% Control ABUTH ([5]; MST 3 g ai/ha alone): 83%
% Control ABUTH ([5]; MST 6 g ai/ha alone): 95%
% Control ABUTH ([5]; MST 12 g ai/ha alone): 92%
% Control ABUTH ([5]; MST 24 g ai/ha alone): 96%
% Control ABUTH ([5]; MST 60 g ai/ha alone): 92%
% Control CHEAL ([6]; MST 1.5 g ai/ha alone): 78%
% Control CHEAL ([6]; MST 3 g ai/ha alone): 85%
% Control CHEAL ([6]; MST 6 g ai/ha alone): 92%
% Control CHEAL ([6]; MST 12 g ai/ha alone): 93%
% Control CHEAL ([6]; MST 24 g ai/ha alone): 93%
% Control CHEAL ([6]; MST 60 g ai/ha alone): 90%

bicyclopyrone
% Control AMAPA ([7]; BIR 1.56 g ai/ha alone): 27%
% Control AMAPA ([7]; BIR 3.13 g ai/ha alone): 37%
% Control AMAPA ([7]; BIR 6.25 g ai/ha alone): 48%
% Control AMAPA ([7]; BIR 12.5 g ai/ha alone): 53%
% Control AMAPA ([7]; BIR 25 g ai/ha alone): 80%
% Control AMAPA ([7]; BIR 50 g ai/ha alone): 90%
% Control CHEAL ([8]; BIR 1.56 g ai/ha alone): 58%
% Control CHEAL ([8]; BIR 3.13 g ai/ha alone): 75%
% Control CHEAL ([8]; BIR 6.25 g ai/ha alone): 88%
% Control CHEAL ([8]; BIR 12.5 g ai/ha alone): 92%
% Control CHEAL ([8]; BIR 25 g ai/ha alone): 96%
% Control CHEAL ([8]; BIR 50 g ai/ha alone): 97%
% Control SETFA ([9]; BIR 3.13 g ai/ha alone, 7 Days after Treatment): 28%
% Control SETFA ([9]; BIR 3.13 g ai/ha alone, 14 Days after Treatment): 23%
% Control SETFA ([9]; BIR 6.25 g ai/ha alone, 7 Days after Treatment): 35%
% Control SETFA ([9]; BIR 6.25 g ai/ha alone, 14 Days after Treatment): 32%
% Control SETFA ([9]; BIR 12.5 g ai/ha alone, 7 Days after Treatment): 62%
% Control SETFA ([9]; BIR 12.5 g ai/ha alone, 14 Days after Treatment): 45%
% Control SETFA ([9]; BIR 25 g ai/ha alone, 7 Days after Treatment): 73%
% Control SETFA ([9]; BIR 25 g ai/ha alone, 14 Days after Treatment): 58%
% Control SETFA ([9]; BIR 50 g ai/ha alone, 7 Days after Treatment): 78%
% Control SETFA ([9]; BIR 50 g ai/ha alone, 14 Days after Treatment): 75%
% Control SETFA ([9]; BIR 100 g ai/ha alone, 7 Days after Treatment): 77%
% Control SETFA ([9]; BIR 100 g ai/ha alone, 14 Days after Treatment): 90%

From patent publication US20260215430A1, “HERBICIDAL COMPOSITIONS” (SYNGENTA CROP PROTECTION AG, priority 2022, published 2026)
